From US12194124B2, “Personal care compositions for treating odor causing bacteria and methods for the same” (Colgate-Palmolive Company, priority 2019, dated 2025)

System: C. Striatum
Assay: Growth inhibition assay in 96-well plate, optical density of C. Striatum
Format: cell-based, Corynebacterium striatum
Description: The efficacy of 2-butyl octanol for selectively promoting, inhibiting, reducing, and/or treating bacterial growth was evaluated. Particularly, the efficacy of 2-butyl octanol for selectively promoting, inhibiting, reducing, and/or treating bacterial growth of Corynebacterium and Staphylococcus was evaluated. To evaluate the efficacy, an active solution was prepared by emulsifying 2-butyl octanol with a nonionic surfactant, namely, Polysorbate 80. The active solution included the 2-butyl octanol and the Polysorbate 80 in a ratio of about 83:17. Both positive controls (including no active solution) and negative controls (including no bacteria) were also prepared.
A 96-well plate was utilized to evaluate the growth of the respective bacteria at varying dilutions. Each of the wells of a 96-well plate was aseptically filled with about 100 μL of Tryptic Soy Broth (TSB). In the first well of each row, about 100 μL of either the active solution (including the 2-butyl octanol and Polysorbate 80) or the desired solvent for the respective positive and negative controls was added to thereby provide a total of about 200 μL in the first well of the each respective row. A multi-channel pipette was then utilized to prepare a two-fold dilution in each column. Specifically, a multi-channel pipette set to about 100 μL was utilized to mix and transfer about 100 μL of the 200 μL from the wells of the first column to the respective wells of a subsequent column. This was repeated for each of the remaining eleven columns. About 100 μL of the twelfth column was removed, thereby leaving about 100 μL in each of the 96 wells. […] Specifically, a phosphate buffered saline (PBS) was utilized for the negative control. About 100 μL of the respective bacteria adjusted to 0.1 optical density (OD) bacteria was added to all other wells. The well plate was then incubated overnight at about 37° C. in a growth inhibition assay machine. Measurements were taken at about one hour increments.

CCCCCCC(CO)CCCC (stereo not shown) [2-butyl octanol, 2-butyl-1-octanol]
Measured Optical Density of C. Striatum (0.02% 2-Butyl Octanol, 1 Hour): 0
Measured Optical Density of C. Striatum (0.02% 2-Butyl Octanol, 2 Hour): 0.086
Measured Optical Density of C. Striatum (0.02% 2-Butyl Octanol, 3 Hour): 0.13
Measured Optical Density of C. Striatum (0.02% 2-Butyl Octanol, 4 Hour): 0.139
Measured Optical Density of C. Striatum (0.02% 2-Butyl Octanol, 5 Hour): 0.143
Measured Optical Density of C. Striatum (0.02% 2-Butyl Octanol, 6 Hour): 0.144
Measured Optical Density of C. Striatum (0.02% 2-Butyl Octanol, 7 Hour): 0.144
Measured Optical Density of C. Striatum (0.02% 2-Butyl Octanol, 8 Hour): 0.144
Measured Optical Density of C. Striatum (0.02% 2-Butyl Octanol, 9 Hour): 0.146
Measured Optical Density of C. Striatum (0.02% 2-Butyl Octanol, 10 Hour): 0.149
Measured Optical Density of C. Striatum (0.02% 2-Butyl Octanol, 11 Hour): 0.155
Measured Optical Density of C. Striatum (0.02% 2-Butyl Octanol, 12 Hour): 0.163
Measured Optical Density of C. Striatum (0.02% 2-Butyl Octanol, 13 Hour): 0.178
Measured Optical Density of C. Striatum (0.02% 2-Butyl Octanol, 14 Hour): 0.21
Measured Optical Density of C. Striatum (0.02% 2-Butyl Octanol, 15 Hour): 0.254
Measured Optical Density of C. Striatum (0.02% 2-Butyl Octanol, 16 Hour): 0.322
Measured Optical Density of C. Striatum (0.02% 2-Butyl Octanol, 17 Hour): 0.404
Measured Optical Density of C. Striatum (0.02% 2-Butyl Octanol, 18 Hour): 0.52
Measured Optical Density of C. Striatum (0.04% 2-Butyl Octanol, 1 Hour): 0.006
Measured Optical Density of C. Striatum (0.04% 2-Butyl Octanol, 2 Hour): 0.058
Measured Optical Density of C. Striatum (0.04% 2-Butyl Octanol, 3 Hour): 0.088
Measured Optical Density of C. Striatum (0.04% 2-Butyl Octanol, 4 Hour): 0.1
Measured Optical Density of C. Striatum (0.04% 2-Butyl Octanol, 5 Hour): 0.111
Measured Optical Density of C. Striatum (0.04% 2-Butyl Octanol, 6 Hour): 0.117
Measured Optical Density of C. Striatum (0.04% 2-Butyl Octanol, 7 Hour): 0.121
Measured Optical Density of C. Striatum (0.04% 2-Butyl Octanol, 8 Hour): 0.124
Measured Optical Density of C. Striatum (0.04% 2-Butyl Octanol, 9 Hour): 0.127
Measured Optical Density of C. Striatum (0.04% 2-Butyl Octanol, 10 Hour): 0.13
Measured Optical Density of C. Striatum (0.04% 2-Butyl Octanol, 11 Hour): 0.133
Measured Optical Density of C. Striatum (0.04% 2-Butyl Octanol, 12 Hour): 0.136
Measured Optical Density of C. Striatum (0.04% 2-Butyl Octanol, 13 Hour): 0.141
Measured Optical Density of C. Striatum (0.04% 2-Butyl Octanol, 14 Hour): 0.149
Measured Optical Density of C. Striatum (0.04% 2-Butyl Octanol, 15 Hour): 0.166
Measured Optical Density of C. Striatum (0.04% 2-Butyl Octanol, 16 Hour): 0.192
Measured Optical Density of C. Striatum (0.04% 2-Butyl Octanol, 17 Hour): 0.234
Measured Optical Density of C. Striatum (0.04% 2-Butyl Octanol, 18 Hour): 0.298
Measured Optical Density of C. Striatum (0.08% 2-Butyl Octanol, 1 Hour): 0.014
Measured Optical Density of C. Striatum (0.08% 2-Butyl Octanol, 2 Hour): 0.07
Measured Optical Density of C. Striatum (0.08% 2-Butyl Octanol, 3 Hour): 0.108
Measured Optical Density of C. Striatum (0.08% 2-Butyl Octanol, 4 Hour): 0.118
Measured Optical Density of C. Striatum (0.08% 2-Butyl Octanol, 5 Hour): 0.124
Measured Optical Density of C. Striatum (0.08% 2-Butyl Octanol, 6 Hour): 0.127
Measured Optical Density of C. Striatum (0.08% 2-Butyl Octanol, 7 Hour): 0.129
Measured Optical Density of C. Striatum (0.08% 2-Butyl Octanol, 8 Hour): 0.131
Measured Optical Density of C. Striatum (0.08% 2-Butyl Octanol, 9 Hour): 0.132
Measured Optical Density of C. Striatum (0.08% 2-Butyl Octanol, 10 Hour): 0.133
Measured Optical Density of C. Striatum (0.08% 2-Butyl Octanol, 11 Hour): 0.133
Measured Optical Density of C. Striatum (0.08% 2-Butyl Octanol, 12 Hour): 0.134
Measured Optical Density of C. Striatum (0.08% 2-Butyl Octanol, 13 Hour): 0.137
Measured Optical Density of C. Striatum (0.08% 2-Butyl Octanol, 14 Hour): 0.141
Measured Optical Density of C. Striatum (0.08% 2-Butyl Octanol, 15 Hour): 0.151
Measured Optical Density of C. Striatum (0.08% 2-Butyl Octanol, 16 Hour): 0.168
Measured Optical Density of C. Striatum (0.08% 2-Butyl Octanol, 17 Hour): 0.194
Measured Optical Density of C. Striatum (0.08% 2-Butyl Octanol, 18 Hour): 0.23
Measured Optical Density of C. Striatum (0.16% 2-Butyl Octanol, 1 Hour): 0.038
Measured Optical Density of C. Striatum (0.16% 2-Butyl Octanol, 2 Hour): 0.037
Measured Optical Density of C. Striatum (0.16% 2-Butyl Octanol, 3 Hour): 0.036
Measured Optical Density of C. Striatum (0.16% 2-Butyl Octanol, 4 Hour): 0.036
Measured Optical Density of C. Striatum (0.16% 2-Butyl Octanol, 5 Hour): 0.036
Measured Optical Density of C. Striatum (0.16% 2-Butyl Octanol, 6 Hour): 0.036
Measured Optical Density of C. Striatum (0.16% 2-Butyl Octanol, 7 Hour): 0.035
Measured Optical Density of C. Striatum (0.16% 2-Butyl Octanol, 8 Hour): 0.036
Measured Optical Density of C. Striatum (0.16% 2-Butyl Octanol, 9 Hour): 0.036
Measured Optical Density of C. Striatum (0.16% 2-Butyl Octanol, 10 Hour): 0.037
Measured Optical Density of C. Striatum (0.16% 2-Butyl Octanol, 11 Hour): 0.037
Measured Optical Density of C. Striatum (0.16% 2-Butyl Octanol, 12 Hour): 0.037
Measured Optical Density of C. Striatum (0.16% 2-Butyl Octanol, 13 Hour): 0.038
Measured Optical Density of C. Striatum (0.16% 2-Butyl Octanol, 14 Hour): 0.038
Measured Optical Density of C. Striatum (0.16% 2-Butyl Octanol, 15 Hour): 0.039
Measured Optical Density of C. Striatum (0.16% 2-Butyl Octanol, 16 Hour): 0.04
Measured Optical Density of C. Striatum (0.16% 2-Butyl Octanol, 17 Hour): 0.041
Measured Optical Density of C. Striatum (0.16% 2-Butyl Octanol, 18 Hour): 0.041
growth of C. stratium (2-butyl octanol at least about 1.6% or greater (Table 3)): completely inhibited
